Laboratory results published in patent publication US20130217664A1, “NOVEL COMPOUNDS USEFUL FOR THE TREATMENT OF DEGENERATIVE AND INFLAMMATORY DISEASES” (priority 2012, published 2013).
pIC50: −log10 of the molar value.

Key:
[1] = target: T1, human JAK1 (Homo sapiens, UniProt P23458); assay: JAK1 inhibition assay (polyGT substrate / Ulight-JAK1 peptide); format: biochemical; details: recombinant human JAK1 catalytic domain; polyGT or Ulight-JAK1 peptide assay
T1 construct: catalytic domain, amino acids 866-1154; catalog number PV4774; purchased Invitrogen PV4774
Summary of the method: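 Two formats. PolyGT radiometric: 45 min at 30 °C, stopped with phosphoric acid, counted as cpm. Ulight-JAK1 peptide: 60 min at room temperature, stopped with Eu-anti-phosphotyrosine/EDTA, read as RFU. Percent inhibition normalised to vehicle and 10 μM staurosporine.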

[2] = target: T2, human JAK2 (Homo sapiens, UniProt O60674); assay: JAK2 inhibition assay (polyGT substrate / Ulight-JAK1 peptide); format: biochemical; details: recombinant human JAK2 catalytic domain; polyGT or Ulight-JAK1 peptide assay
T2 construct: catalytic domain (amino acids 808-1132; catalog number PV4210); GST; purchased Invitrogen PV4210
Summary of the method: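 Radiometric: 0.025 mU JAK2 with 2.5 μg polyGT, 1 μM ATP plus ^33P-ATP in MOPS pH 7.5 buffer, 1% DMSO, 90 min at 30° C.; filter counting. Alternative TR-FRET format with Ulight-JAK1 peptide, 60 min at room temperature, Eu-anti-phosphotyrosine detection.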

[3] = target: T3, human JAK3 (Homo sapiens, UniProt P52333); assay: JAK3 inhibition assay; format: biochemical; details: recombinant human JAK3 catalytic domain; polyGT substrate
T3 construct: catalytic domain (amino acids 781-1124; catalog number PV3855); purchased Invitrogen PV3855
Summary of the method: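 Radiometric kinase assay: 0.5 ng JAK3 with 2.5 μg polyGT in Tris pH 7.5/MgCl2 buffer, 1 μM ATP plus 0.25 μCi 33P-γ-ATP, 1% DMSO, 45 min at 30 °C, stopped with phosphoric acid.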

[4] = target: T4, human TYK2 (Homo sapiens, UniProt P29597); assay: TYK2 inhibition assay; format: biochemical; details: recombinant human TYK2 catalytic domain, polyGT substrate
T4 construct: catalytic domain (amino acids 871-1187; catalog number 08-147); purchased Carna Biosciences 08-147
T4 sequence (P29597 871-1187): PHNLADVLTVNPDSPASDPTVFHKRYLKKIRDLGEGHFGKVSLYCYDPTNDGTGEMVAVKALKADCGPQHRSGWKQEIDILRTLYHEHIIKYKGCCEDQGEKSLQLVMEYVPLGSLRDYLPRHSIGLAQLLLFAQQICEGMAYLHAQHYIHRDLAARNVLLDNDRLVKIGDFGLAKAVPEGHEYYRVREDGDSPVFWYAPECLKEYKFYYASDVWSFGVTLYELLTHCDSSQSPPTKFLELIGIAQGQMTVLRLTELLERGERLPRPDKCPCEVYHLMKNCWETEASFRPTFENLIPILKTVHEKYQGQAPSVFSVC
Summary of the method: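 Radiometric kinase reaction run 90 min at 30 °C, stopped with phosphoric acid, washed and scintillation-counted.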

[5] = test system: CTLL-2 cell line; assay: CTLL2 viability assay; format: cell-based; details: Mus musculus, IL-2 dependent CTLL2 viability, 24 h, ATP-lite
Description: The protocol describes the methods to analyse the activity of compounds on their ability to sustain the IL2-dependent viability of CTLL2.
Final DMSO concentration was 0.1%.

[6] = test system: BA/F3 cell line; assay: BA/F3 viability assay; details: Mus musculus, BaF3, 48 h, read-out: BA/F3 IC50

T2 sequence (O60674 808-1132): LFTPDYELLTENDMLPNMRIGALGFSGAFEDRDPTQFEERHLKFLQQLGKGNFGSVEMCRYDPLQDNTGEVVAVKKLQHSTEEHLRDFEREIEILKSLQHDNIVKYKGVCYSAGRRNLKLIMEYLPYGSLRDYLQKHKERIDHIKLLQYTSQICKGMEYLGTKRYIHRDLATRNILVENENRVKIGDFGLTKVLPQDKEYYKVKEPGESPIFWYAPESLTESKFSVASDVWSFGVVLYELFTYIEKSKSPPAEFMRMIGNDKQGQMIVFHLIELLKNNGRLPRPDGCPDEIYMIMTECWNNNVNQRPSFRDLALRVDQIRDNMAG
T1 sequence (P23458 866-1154): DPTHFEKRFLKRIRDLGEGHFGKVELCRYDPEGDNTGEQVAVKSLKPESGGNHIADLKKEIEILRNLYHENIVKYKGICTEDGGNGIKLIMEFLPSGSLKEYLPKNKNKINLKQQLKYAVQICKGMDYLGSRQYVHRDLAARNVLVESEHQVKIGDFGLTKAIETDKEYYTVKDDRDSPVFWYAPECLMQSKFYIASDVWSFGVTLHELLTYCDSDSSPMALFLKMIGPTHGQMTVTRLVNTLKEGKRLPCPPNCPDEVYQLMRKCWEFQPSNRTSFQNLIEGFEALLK
T3 sequence (P52333 781-1124): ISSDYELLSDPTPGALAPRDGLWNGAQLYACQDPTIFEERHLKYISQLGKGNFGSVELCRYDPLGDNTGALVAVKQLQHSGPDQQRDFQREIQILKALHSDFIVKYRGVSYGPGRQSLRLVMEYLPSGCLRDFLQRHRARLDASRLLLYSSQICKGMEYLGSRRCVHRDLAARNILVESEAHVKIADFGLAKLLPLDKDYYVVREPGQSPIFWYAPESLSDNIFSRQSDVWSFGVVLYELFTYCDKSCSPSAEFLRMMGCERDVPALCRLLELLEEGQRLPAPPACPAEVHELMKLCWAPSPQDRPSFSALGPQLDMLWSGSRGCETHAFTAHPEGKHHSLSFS

Row | Structure (SMILES) | pIC50 [1] | pIC50 [2] | pIC50 [3] | pIC50 [4] | pIC50 [6] | pIC50 [5]
1 | CCc1cc(N2CC(C(=O)NC)C2)ncc1N(C)c1cc2c(cn1)ncn2C [Compound 400, 1-{4-Ethyl-5-[methyl-(1-methyl-1H-imidazo[4,5-c]pyridin-6-yl)-amino]-pyridin-2-yl}-azetidine-3-carboxylic acid methylamide] | 6.30 to 7.00 | 6.00 to 6.30 | < 6.00 | 6.00 to 6.30 | < 5.30 | < 6.00
2 | CN(c1cc2c(cn1)ncn2C)c1c(F)cc(CC#N)cc1F [Compound 405, {3,5-Difluoro-4-[methyl-(1-methyl-1H-imidazo[4,5-c]pyridin-6-yl)-amino]-phenyl}-acetonitrile] | 7.00 to 11.00 | 7.00 to 11.00 | 6.00 to 6.30 | 7.00 to 11.00 | 5.30 to 6.00 | < 6.00
3 | CCc1cc(CC#N)ccc1N(C)c1cc2c(cn1)ncn2C [Compound 406, {3-Ethyl-4-[methyl-(1-methyl-1H-imidazo[4,5-c]pyridin-6-yl)-amino]-phenyl}-acetonitrile] | 7.00 to 11.00 | 7.00 to 11.00 | 7.00 to 11.00 | 7.00 to 11.00 | 5.30 to 6.00 | 6.00 to 6.30
4 | CCc1cc(CC#N)ncc1N(C)c1cc2c(cn1)ncn2C [Compound 407, {4-Ethyl-5-[methyl-(1-methyl-1H-imidazo[4,5-c]pyridin-6-yl)-amino]-pyridin-2-yl}-acetonitrile] | 7.00 to 11.00 | 7.00 to 11.00 | 6.00 to 6.30 | 6.30 to 7.00 | < 5.30 | < 6.00
5 | CN(c1cc2c(cn1)ncn2C)c1c(F)cc(C2CN(S(C)(=O)=O)C2)cc1F [Compound 409, [2,6-Difluoro-4-(1-methanesulfonyl-azetidin-3-yl)-phenyl]-methyl-(1-methyl-1H-imidazo[4,5-c]pyridin-6-yl)-amine] | 7.00 to 11.00 | 6.30 to 7.00 | 6.00 to 6.30 | < 6.00 | < 5.30 | < 6.00

Second part, led by results:

Row | pIC50 [1] | pIC50 [2] | pIC50 [3] | pIC50 [4] | pIC50 [6] | Structure (SMILES) | pIC50 [5]
6 | 7.00 to 11.00 | 7.00 to 11.00 | 7.00 to 11.00 | 7.00 to 11.00 | < 5.30 | CCc1cc(C(C#N)N2CCN(C(C)=O)CC2)ccc1N(C)c1cc2c(cn1)ncn2C (stereo not drawn) [Compound 396, (4-Acetyl-piperazin-1-yl)-{3-ethyl-4-[methyl-(1-methyl-1H-imidazo[4,5-c]pyridin-6-yl)-amino]phenyl}-acetonitrile] | < 6.00
7 | 7.00 to 11.00 | 7.00 to 11.00 | 7.00 to 11.00 | 7.00 to 11.00 | 5.30 to 6.00 | CCc1cc(C2(CCNS(=O)(=O)C(F)F)COC2)ccc1N(C)c1cc2c(cn1)ncn2C [Compound 397, N-[2-(3-{3-Ethyl-4-[methyl-(1-methyl-1H-imidazo[4,5-c]pyridin-6-yl)-amino]-phenyl}-oxetan-3-yl)-ethyl]-C,C-difluoro-methanesulfonamide] | < 6.00
8 | 7.00 to 11.00 | 7.00 to 11.00 | 7.00 to 11.00 | 6.30 to 7.00 | 5.30 to 6.00 | CCc1cc(C2(COS(=O)(=O)C(F)F)CCNC2)ccc1N(C)c1cc2c(cn1)ncn2C (stereo not drawn) [Compound 398, difluoro-methanesulfonic acid 3-{3-ethyl-4-[methyl-(1-methyl-1H-imidazo[4,5-c]pyridin-6-yl)-amino]-phenyl}-pyrrolidin-3-ylmethyl ester] | < 6.00
9 | 7.00 to 11.00 | 7.00 to 11.00 | 6.30 to 7.00 | 7.00 to 11.00 | 5.30 to 6.00 | CCc1cc(N2CC(C#N)C2)ncc1N(C)c1cc2c(cn1)ncn2C [Compound 402, 1-{4-Ethyl-5-[methyl-(1-methyl-1H-imidazo[4,5-c]pyridin-6-yl)-amino]-pyridin-2-yl}-azetidine-3-carbonitrile] | < 6.00
10 | 7.00 to 11.00 | 7.00 to 11.00 | 6.30 to 7.00 | 6.30 to 7.00 | < 5.30 | CN(c1cc2c(cn1)ncn2C)c1c(F)cc(CNS(C)(=O)=O)cc1F [Compound 404, N-{3,5-Difluoro-4[methyl-(1-methyl-1H-imidazo[4,5-c]pyridin-6-yl)-amino]-benzyl}-methanesulfonamide] | < 6.00
